Data set [1] has as its target T1, SRTF1 (Pimelobacter simplex, UniProt A0A0A1DUF2).
T1 construct: gene KR76_27130; assembled on quantum dots for FRET
T1 sequence (A0A0A1DUF2 1-189): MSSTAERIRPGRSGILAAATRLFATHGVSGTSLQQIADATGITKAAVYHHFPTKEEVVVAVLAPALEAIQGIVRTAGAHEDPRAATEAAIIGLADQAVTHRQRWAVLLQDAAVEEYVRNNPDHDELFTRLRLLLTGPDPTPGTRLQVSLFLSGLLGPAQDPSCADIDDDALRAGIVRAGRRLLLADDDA
Description: QD-TF-FRET, ligand-induced release of Cy5-labelled operator DNA. Particulars: sensor 3: QD/TF/DNA ratio 1:1:18, operator with 2 mutated bases in one half of palindrome, HEPES, RT; allosteric. The format is biochemical.

In data set [2] the target is T2, SRTF1 (Pimelobacter simplex ATCC 6946, UniProt A0A0A1DUF2 1-189).
T2 sequence: T1 sequence (A0A0A1DUF2 1-189)
Description: BLI; no steroid; BLI: 28 mM Tris-HCl pH 8.0, 5 mM MgCl (so in the source), 4.25% glycerol, 25 mM NaCl, 1.67 mg/mL BSA, 30 C; QD-FRET: 1x HEPES with binding buffer (5x: 25 mM MgCl2, 25% glycerol, 250 mg/L salmon sperm DNA, 0.1 M Tris-HCl), RT. Particulars: protein: recombinant; tags: C-terminal 6xHis; chain copies: 2; label: 5' biotin on strand 1; blunt. In general terms: Biolayer interferometry detects binding as a change in optical thickness at a sensor tip.

What is called IC50 is the concentration at which inhibition is half-maximal. Take `C[C@]12CCC(=O)C=C1CC[C@@H]1[C@@H]2[C@@H](O)C[C@]2(C=O)[C@@H](C(=O)CO)CC[C@@H]12` [ALD, aldosterone]: the IC50 on SRTF1 [1] is 312 ± 42 nM.

B1: BLI-SCRM (dsDNA)
DNA 1: AAATTGTCCCGGGCCTTTCTCCGCGCGTCTGGTAACCCTTAGGATTACTC
DNA 2: GAGTAATCCTAAGGGTTACCAGACGCGCGGAGAAAGGCCCGGGACAATTT
Consider B1, for which the binding result with SRTF1 [2] is listed as “no binding”.

The record behind these values is publication PMC7062782, “A progesterone biosensor derived from microbial screening” (Nature Communications, 2020).
